Assay results as given in EP0433759A1, “4-Substituted alkyl carbapenem antibiotics” (Bristol-Myers Squibb Company, priority 1989, dated 1991).
≈ marks a conversion by molar mass, not a printed value. Counter-ions that a name gives are not always drawn.

Tests used:
[1] = Solubility in water, observation on the lyophilized product; format: physicochemical; settings: lyophilized material
Experimental: A solution of (4R,5S,6S)-4-(4"-aminobutyl)-6-[(1'R)-1'-hydroxyethyl]-3-[(pyridin-4-yl)methylthio]-7-oxo-1-azabicyclo[3.2.0]hept-2-ene-2-carboxylic acid (0.134 g, 0.34 mmol) in 15 mL of cold water (pH 6.4), was adjusted to pH 8.0 with 1 M NaOH. Then 0.170 g (1.36 mmol) of aminoiminomethanesulfonic acid [K. Kim et al., Tet. Lett., 29, 3183 (1988)] was added in small portions over 5 min while maintaining the pH at 8 with 1 M NaOH. Three more portions of aminoiminomethanesulfonic acid (3 x 0.050 g) were added at 30 min intervals and the resulting mixture (some insoluble material) was stirred for a total of 3 h at 0-5 C. The pH was maintained throughout at 8 with 1 M NaOH. Then 15 mL of 0.2M pH 6.0 phosphate buffer was added and the resulting homogeneous solution was chromatographed on reverse phase silica gel (µBondapak C18, 2.5 x 14 cm). Elution with a gradient of acetonitrile (0-10%) in water gave 0.103 g (69%) of the title compound as a white amorphous powder after freeze drying.

[2] = Chemical stability in aqueous solution (half-life); format: physicochemical; settings: 37°C, 10^-4 M, pH 7.4, aqueous solution; read-out: Half-life (T 1/2) (converted)
Experimental: These values were determined by the method of Woodward et al, J. Am. Chem. Soc., 102, 2042 (1980)

[3] = tested on: Pseudomonas aeruginosa, A9843; assay: In vitro antibacterial activity (MIC), serial 2-fold dilution; format: cell-based; settings: Pseudomonas aeruginosa A9843; Mueller-Hinton; 37°C, 17 h; read-out: Antibacterial Activity MIC P. aer.
Experimental: (§1) In vitro antibacterial activity was determined by serial 2-fold dilution of the compound in Mueller-Hinton agar and inoculation of the agar surface or broth with an appropriately diluted 18-24 h broth culture.

[4] = tested on: Escherichia coli, A15119; assay: as above; format: cell-based; settings: Escherichia coli A15119; Mueller-Hinton; 37°C, 17 h; read-out: Antibacterial Activity MIC E. coli
Experimental: as §1

[5] = tested on: Streptococcus pneumoniae, A9585; assay: as above; format: cell-based; settings: Streptococcus pneumoniae A9585; Mueller-Hinton; 37°C, 17 h; read-out: Antibacterial Activity MIC S. pn.
Experimental: as §1

| Solubility in water [1] | half-life at 100 µM [2] | MIC [3] | MIC [4] | MIC [5] | Structure (SMILES) |
| --- | --- | --- | --- | --- | --- |
| only slightly soluble in water | – | – | – | – | C[C@@H](O)[C@H]1C(=O)N2C(C(=O)O)=C(SCc3ccncc3)[C@H](CCCCNC(=N)N)[C@H]12 [Example 78, (4R,5S,6S)-4-(4"-Guanidinobutyl]-6-[(1'R)-1'-hydroxyethyl]-3-[(pyridin-4-yl)methylthio]-7-oxo-1-azabicyclo-[3.2.0]hept-2-ene-2-carboxylic acid] |
| – | 247 h | 2 µg/mL (≈ 6.36 µM) | 0.06 µg/mL (≈ 0.191 µM) | 2 µg/mL (≈ 6.36 µM) | CSC1=C(C(=O)O)N2C(=O)[C@H]([C@@H](C)O)[C@H]2[C@H]1CCCCN [Example 92, (4R,5S,6S)-4-(4"-Aminobutyl)-6-(1'R)-1'-hydroxyethyl-3-methylthio-7-oxo-1-azabicyclo[3.2.0]hept-2-ene-2-carboxylic acid] |
| – | 16 h | 0.06 µg/mL | 0.13 µg/mL | 0.13 µg/mL | C[C@@H](O)[C@H]1C(=O)N2C(C(=O)O)=C(SCC(=N)N(C)C)[C@H](CCCN)[C@H]12 [Example 130, (4R,5S,6S)-4-(3"-Aminopropyl)-3-[(N,N-dimethylamidinomethyl]thio]-6-[(1'R)-1'-hyroxyethyl]-7-oxo-1-azabicyclo[3.2.0]hept-2-ene-2-carboxylic acid, acetic acid salt] |
| – | 150 h | 4 µg/mL (≈ 10.7 µM) | 0.016 µg/mL (≈ 0.043 µM) | 0.5 µg/mL (≈ 1.34 µM) | C[C@@H](O)[C@H]1C(=O)N2C(C(=O)O)=C(SCCO)[C@H](CCCCN(C)C)[C@H]12 [Example 91, (4R,5S,6S)-4-(4"-N,N-Dimethylaminobutyl)-6-[(1'R)-1'-hydroxyethyl]-3-[(2-hydroxyethyl)thio]-7-oxo-1-azabicyclo-[3.2.0]hept-2-ene-2-carboxylic acid] |
| – | 46 h | 2 µg/mL (≈ 5.19 µM) | 0.13 µg/mL (≈ 0.337 µM) | 0.25 µg/mL (≈ 0.648 µM) | C[C@@H](O)[C@H]1C(=O)N2C(C(=O)O)=C(SCCC#N)[C@H](CCSCCN)[C@H]12 [Example 131, (4R,5S,6S)-4-(2"-(2-Aminoethylthio)ethyl]-3-[(2-cyanoethylthio]-6-[(1'R)-1'-hydroxyethy)]-7-oxo-1-azabicyclo-[3.2.0]-hept-2-ene-2-carboxylic acid] |
| – | 17 h | 4 µg/mL (≈ 10.3 µM) | 0.007 µg/mL (≈ 0.0181 µM) | 0.015 µg/mL (≈ 0.0387 µM) | C[C@@H](O)[C@H]1C(=O)N2C(C(=O)[O-])=C(SCCC#N)[C@H](CC[n+]3ccccc3)[C@H]12 [Example 136, (4R,5S,6S)-3-[(2-Cyanoethyl)thio]-6-[(1'R)-1'-hydroxyethyl]-4-[2"-(1-pyridinium)ethyl]7-oxo-1-azabicyclo-[3.2.0]hept-2-ene-2-carboxylate] |
| – | 180 h | 2 µg/mL (≈ 4.66 µM) | 0.008 µg/mL (≈ 0.0186 µM) | 0.25 µg/mL (≈ 0.582 µM) | C[C@@H](O)[C@H]1C(=O)N2C(C(=O)O)=C(SCCOC(N)=O)[C@H](CCCCNC(=N)N)[C@H]12 [Example 100, (4R.5S,6S)-3-[(2-Carbamoyloxyethyl)thio)-4-(4"-guanidinobutyl)-6-[(1'R)-1'-hydroxyethyl]-7-oxo-1-azabicyclo-[3.2.0]-hept-2-ene-2-carboxylic acid] |
| – | 3.5 h | 1 µg/mL (≈ 2.75 µM) | 0.016 µg/mL (≈ 0.044 µM) | 0.13 µg/mL (≈ 0.358 µM) | C[C@@H](O)[C@H]1C(=O)N2C(C(=O)O)=C(SCc3cccnc3)[C@H](CCN)[C@H]12 [Example 24, (4R,5S,6S)-4-(2"-Aminoethyl)-6-[(1'R)-1'-hydroxyethyl]-3-[(pyridin-3-yl)methyithio]-7-oxo-1-azabicyclo[3.2.0]-hept-2-ene-2-carboxylic acid] |
| – | 76 h | 0.25 µg/mL (≈ 0.699 µM) | 0.004 µg/mL (≈ 0.0112 µM) | 0.25 µg/mL (≈ 0.699 µM) | C[C@@H](O)[C@H]1C(=O)N2C(C(=O)O)=C(SCCO)[C@H](CCCNC=N)[C@H]12 [Example 32, (4R,5S,6S)-4-[3"-[N-Formimidoyl)aminopropyl]-6-[(1'R)-1'-hydroxyethyl]-3-[(2-hydroxyethyl)thio]-7-oxo-1-azabicyclo [3.2.0]hept-2-ene-2-carboxylic acid] |
